Reference: PMC8744131, “Dimensionless parameter predicts bacterial prodrug success” (Molecular Systems Biology, 2022)
Values after ≈ are worked out from the molar mass of the structure shown. Where two headings read alike, the source gives them in different places. Where no end group is shown, it is not given here. The star is where a group is joined. 5FAM = O=C1OC2(c3ccc(O)cc3Oc3cc(O)ccc32)c2ccc(C(=O)*)cc21; Dabcyl = CN(C)c1ccc(N=Nc2ccc(C(=O)*)cc2)cc1

Assays:
OmpT [1] = target: OmpT (Escherichia coli, UniProt P09169); settings: Fig EV5B, text printed in picture
Source text: (§1) This allowed us to more rigorously test the model by predicting bacteria‐prodrug response curves across nine distinct combinations of kcat and r values before performing the physical experiments. We experimentally controlled the nine distinct combinations of kcat and r values by altering the ambient temperature and concentration of broth (conditions labeled A1–3, B1–3, and C1–3; Table EV3). We affected the enzymatic activation rate of the prodrug, kcat, by changing temperature as described by the Arrhenius equation (Calvert, [1990]). […] To experimentally validate this, we incubated bacteria with AMP prodrug under the defined nine conditions and quantified the number of living bacteria longitudinally over the course of a 24‐h treatment window.

DH5α E. coli [2] = experiment: Bacteria viability assay, AMP prodrugs with TEV protease or inhibitor; assay type: cell-based; settings: CFU, n = 3–4
OmpT [3] = settings: micromolar concentrations; ref Brannon et al, 2015; cited from earlier work
Source text: To validate the predictions of our mathematical model with an in vitro bacteria‐activated prodrug system, we synthesized a protease‐activated AMP prodrug. This AMP prodrug comprised cationic (polyarginine, R9) antimicrobial peptides (AMP) in charge complexation with anionic peptide locks (polyglutamic acid, E13) by a linker peptide (RRS|RRV) specific for the ubiquitous bacterial protease OmpT (Olson et al, [2009]; preprint: Holt et al, [2019]). Upon proteolytic cleavage of the linker, the hairpin prodrug is unlocked to release free AMP (Fig 3A). To measure OmpT activity, we synthesized an acti ...

DH5α E. coli [4] = experiment: Bacteria viability assay (CFU), AMP system; assay type: cell-based
Protocol: (§2) Positive control for AMP toxicity (black bar).
Figure EV4 Parent drug control for all conditions in AMP prodrug system Parent drug (R9, polyarginine) controls for conditions testing different media conditions and temperatures in the AMP prodrug studies.
DH5α Escherichia coli were a gift from Todd Sulchek's BioMEMS lab at Georgia Tech. E. coli were cultured in LB broth (Lennox) at 37°C and plated on LB agar (Lennox) plates. LB broth was purchased from Millipore Sigma (Burlington, MA) and LB agar was purchased from Invitrogen (Carlsbad, CA). AMP and locked AMP were custom ordered from Genscript (Piscataway, NJ). See Table EV1 for more information. Bacteria were grown to a concentration of 10^9 CFU/ml before being used for experiments. Concentration was estimated by measuring the OD600 of the bacterial suspension, and assuming an OD600 of 1.000 corresponds to a concentration of 8 × 10^8 CFU/ml. Bacterial cell viability was measured by making eight 10‐fold serial dilutions, and plating three 10‐µl spots on an LB agar plate. Plates were incubated overnight at 37°C, and CFUs were counted. Untreated bacteria CFU counts served as control for 0% cytotoxicity, and bacteria + IPA (or 0 countable CFUs) served as control for 100% cytotoxicity.

[5] = system: OmpT expressed on the surface of E. coli K‐12 BW25113; experiment: Cleavage assay with OmpT expressed on the surface of E. coli; assay type: biochemical; settings: 37°C, n = 3
Source text: To measure OmpT activity, we synthesized an activity probe (McCarter et al, [2004]; Kwong et al, [2013], [2021]; Holt et al, [2017], [2018]; Mac et al, [2019]; Zhuang et al, [2019]) with free linker peptides containing a fluorophore‐quencher pair, which produced an increase in fluorescence upon proteolytic cleavage.
as §2

UTI89 E. coli = experiment: Bacterial toxicity of TMP and TM-TMP (CFU / MIC); assay type: cell-based
Source text: Just as with our earlier experiments, we measured (i) the number of bacteria and (ii) the number of drug molecules consumed in each killing reaction to calculate the parameters a and b, respectively (Fig EV8).

OmpT on DH5α E. coli = OmpT on DH5α E. coli (Escherichia coli, UniProt P09169)
Source text: as §1
Figure EV2 Calculating bacterial growth rate and enzymatic activity in the AMP prodrug system • Schematic of the simplified model that only includes bacteria and a substrate probe, which was used to quantify r and kcat from bacterial cleavage assays. • Bacterial cleavage assays (blue line) where we are measuring the increase in fluorescence from the cleavage of the fluor‐quencher substrate probe over time. Bacteria and fluor‐quencher probe are incubated together for 12 h. Then, we fit a simplified model to the results, which is plotted as the dashed line. Each panel is labeled with the environmental condition as described in Table EV3 and correlating with Fig 4.
Table EV3. Additional information for experimental conditions. This information includes incubation temperature (second column from left), the concentration of LB broth by volume (third column from left), growth rate, r (fourth column from left), enzyme catalytic turnover, kcat (fifth column from left), and the bacterial advantage heuristic, BAH (sixth column from left).

DH5α E. coli [6] = experiment: Bacterial Advantage Heuristic (BAH) / model, AMP prodrug system
Source text: as §1

DH5α E. coli [7] = experiment: Short-time drug dosing experiment with free AMP for a and b; assay type: cell-based; settings: DH5a + AMP prodrug model; from free AMP dosing, t < 10 min, n = 3
Protocol: Experiment was taken at a short time interval (t < 10 min) so we could calculate the number of bacteria and drug copies consumed in each killing reaction.

Chain of OmpT on DH5α E. coli (P09169 21-317): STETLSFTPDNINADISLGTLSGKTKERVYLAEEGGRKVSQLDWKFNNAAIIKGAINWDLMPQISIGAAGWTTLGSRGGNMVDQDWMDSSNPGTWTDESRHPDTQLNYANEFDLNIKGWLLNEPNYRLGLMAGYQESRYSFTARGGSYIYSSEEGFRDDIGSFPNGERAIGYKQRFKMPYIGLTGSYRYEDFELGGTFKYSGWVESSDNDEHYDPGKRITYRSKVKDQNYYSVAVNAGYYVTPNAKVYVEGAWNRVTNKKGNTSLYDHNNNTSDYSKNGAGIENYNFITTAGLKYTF
Chain of OmpT (Escherichia coli, UniProt P09169) (P09169 21-317): as above

Compound: EEEEEEEEENLYFQGRRRRRRRR [Locked AMP (linker 3), AMP prodrug with linker ENLYFQG, specific to TEV protease]
- catalytic efficiency kcat/Km (rank in words) (OmpT [1]): Lowest
- reduction of bacteria load (DH5α E. coli [2]; TEV-specific locked AMP alone (no TEV protease)): did not significantly reduce bacteria load
- elimination of bacteria (DH5α E. coli [2]; TEV-specific locked AMP plus TEV protease): elimination of bacteria

Compound: aprotinin [reference compound]
- reduction of bacteria load (DH5α E. coli [2]; control with OmpT inhibitor aprotinin plus OmpT-specific locked AMP): did not significantly reduce bacteria load
- inhibition of OmpT (OmpT [3]): inhibits OmpT when present in micromolar concentrations

Compound: polyarginine [free AMP]
- reduction in colonies vs untreated controls (DH5α E. coli [4]; free AMP, CFU, n = 3–4 biological replicates, one-way ANOVA): significant reduction in colonies compared to untreated controls
- treatment success (DH5α E. coli [4]; nine conditions A1–C3 (30/37 °C, 0–66% LB broth), 24 h, serial CFU, n = 3): successfully treated bacteria in all nine conditions tested

Compound: Dabcyl-RRSRRVK(5FAM) [OmpT Probe, free linker peptide RRSRRV with fluorophore-quencher pair]
- linker specificity: cleavage activity by parent strain vs OmpT knockout ([5]; OmpT-positive E. coli K‐12 BW25113 vs OmpT genetic knockout, fluorescence 485/528 nm, 60–120 min): only observed activity in samples incubated with the parent strain (i.e., OmpT‐positive)
- cleavage activity in presence of aprotinin ([5]; recombinant OmpT or E. coli surface OmpT with aprotinin, fluorescence): no activity in samples containing the serine protease inhibitor, Aprotinin

Compound: COc1cc(Cc2cnc(N)nc2N)cc(OC)c1OC [TMP, trimethoprim]
- change in number of bacteria killed on adding GSH (UTI89 E. coli; 5 mM GSH vs no GSH, surviving CFU): did not significantly change
- efficiency at killing bacteria vs TM-TMP (UTI89 E. coli; 37°C, 75% broth, n = 3): significantly more efficient at killing UTI89 bacteria
- MIC (UTI89 E. coli; Escherichia coli, 37°C, 75% broth, n = 3, read-out: minimum inhibitory concentration (MIC)): 3.2 µM (≈ 0.929 µg/mL)

Compound: EEEEEEEEEEEEERRSRRVRRRRRRRRR [Locked AMP (linker 1), R9 antimicrobial peptide locked by E13 via OmpT-cleavable linker RRSRRV; default locked AMP]
- kcat (OmpT on DH5α E. coli; condition A1: 37 °C, 0% LB broth, r 0.1 h^-1): 25 h^-1 x 10^10
- kcat (OmpT on DH5α E. coli; condition A2: 30 °C, 2% LB broth, r 0.14 h^-1): 13.6 h^-1 x 10^10
- kcat (OmpT on DH5α E. coli; condition A3: 37 °C, 2% LB broth, r 0.3 h^-1): 22 h^-1 x 10^10
- kcat (OmpT on DH5α E. coli; condition B1: 37 °C, 4% LB broth, r 0.5 h^-1): 15 h^-1 x 10^10
- kcat (OmpT on DH5α E. coli; condition B2: 37 °C, 6% LB broth, r 0.85 h^-1): 13.6 h^-1 x 10^10
- kcat (OmpT on DH5α E. coli; condition B3: 37 °C, 20% LB broth, r 2.2 h^-1): 1 h^-1 x 10^10
- kcat (OmpT on DH5α E. coli; condition C1: 30 °C, 20% LB broth, r 1.4 h^-1): 5.2 h^-1 x 10^10
- kcat (OmpT on DH5α E. coli; condition C2: 30 °C, 66% LB broth, r 1.6 h^-1): 4 h^-1 x 10^10
- kcat (OmpT on DH5α E. coli; condition C3: 37 °C, 66% LB broth, r 3 h^-1): 6 h^-1 x 10^10
- ratio of a to b (DH5α E. coli [6]): 0.5 × 10^−11
- catalytic efficiency kcat/Km (rank in words) (OmpT [1]): High
- a, bacterial death rate constant (DH5α E. coli [7]): 1e-13 µL/h
- b, drug decay rate constant (DH5α E. coli [7]): 0.02 µL/h
- elimination of bacteria (DH5α E. coli [2]; OmpT-specific locked AMP alone, natively expressed OmpT): elimination of bacteria
